{"source": "paper PMC4491177", "about": "“Co-translational capturing of nascent ribosomal proteins by their dedicated chaperones” (Nature Communications, 2015)", "molecules": {"B1": {"name": "Sqt1-TAP: C-terminally TAP-tagged Sqt1 (protein)", "chain": "MEPQEEFITTEEVEQEIVPTVEVEQDVPVDIEGENDDDDEMMNDDEEALEVDMSNNSLTYFDKHTDSVFAIGHHPNLPLVCTGGGDNLAHLWTSHSQPPKFAGTLTGYGESVISCSFTSEGGFLVTADMSGKVLVHMGQKGGAQWKLASQMQEVEEIVWLKTHPTIARTFAFGATDGSVWCYQINEQDGSLEQLMSGFVHQQDCSMGEFINTDKGENTLELVTCSLDSTIVAWNCFTGQQLFKITQAEIKGLEAPWISLSLAPETLTKGNSGVVACGSNNGLLAVINCNNGGAILHLSTVIELKPEQDELDASIESISWSSKFSLMAIGLVCGEILLYDTSAWRVRHKFVLEDSVTKLMFDNDDLFASCINGKVYQFNARTGQEKFVCVGHNMGVLDFILLHPVANTGTEQKRKVITAGDEGVSLVFEVPN", "modifications": "left off: TAP, C-terminal, kept"}, "B2": {"name": "NTAP-Rrb1: N-terminally TAP-tagged Rrb1 (protein)", "chain": "MSKRSIEVNEEQDRVVSAKTESHSVPAIPASEEQDAPKNDLEEQLSDEFDSDGEIIEIDGDDEINDEDDLRKKQEEAETLVQKDQSEGNKEKIQELYLPHMSRPLGPDEVLEADPTVYEMLHNVNMPWPCLTLDVIPDTLGSERRNYPQSILLTTATQSSRKKENELMVLALSNLAKTLLKDDNEGEDDEEDDEDDVDPVIENENIPLRDTTNRLKVSPFAISNQEVLTATMSENGDVYIYNLAPQSKAFSTPGYQIPKSAKRPIHTVKNHGNVEGYGLDWSPLIKTGALLSGDCSGQIYFTQRHTSRWVTDKQPFTVSNNKSIEDIQWSRTESTVFATAGCDGYIRIWDTRSKKHKPAISVKASNTDVNVISWSDKIGYLLASGDDNGTWGVWDLRQFTPSNADAVQPVAQYDFHKGAITSIAFNPLDESIVAVGSEDNTVTLWDLSVEADDEEIKQQAAETKELQEIPPQLLFVHWQKEVKDVKWHKQIPGCLVSTGTDGLNVWKTISV", "modifications": "left off: NTAP (proteinA-TEV-CBP-Flag), N-terminal, kept"}}, "key": {"[1]": {"test_system": "yeast strain YDK11-5A", "test": "growth assay, yEGFP fusion expression and chaperone overexpression", "format": "cell-based, S. cerevisiae", "details": "chaperones from GAL1-10 promoter, SGal-Leu-Trp plates, 30 °C", "description": "Supplementary Figure 3 The N-terminal residues of Rpl10 and Rpl3 are sufficient and required for the interaction with Sqt1 and Rrb1, respectively. (a) The negative growth effect associated with L10-N- and L3-N-yEGFP expression is suppressed by overexpression of Sqt1 and Rrb1, respectively. The wild-type strain YDK11-5A was co-transformed with plasmids expressing yEGFP, Rpl10(1-20)-yEGFP or Rpl3(1-23)-yEGFP from the cognate RPL10 or RPL3 promoter, respectively, and empty vector or plasmids expressing Sqt1 or Rrb1 from the inducible GAL1-10 promoter. Transformants were first selected and then restreaked on SGal-Leu-Trp plates. Cells were spotted in 10-fold serial dilution steps onto SC-Leu-Trp (Glucose, Glu) and SGal-Leu-Trp (Galactose, Gal) plates, which were incubated for 3 d or 4 d at 30 °C, respectively. (b) The N-terminal residues of Rpl10 and Rpl3 are sufficient to mediate interaction with their chaperones in vivo. Tandem-affinity purification of C-terminally TAP-tagged Sqt1 (Sqt1-TAP, lanes 1 and 2) and N-terminally TAP-tagged Rrb1 (NTAP-Rrb1, […]\n(1 picture or pasted object on this page, not shown here)"}, "[2]": {"test_system": "NTAP-Rrb1", "test": "in vivo co-purification (TAP) with NTAP-Rrb1", "format": "binding, S. cerevisiae", "details": "CUP1 promoter, 30 min with 500 µM copper sulfate", "protocol": "(§1) Cells expressing Sqt1-TAP and NTAP-Rrb1 were grown at 30 °C in 4 l yeast extract peptone dextrose (YPD) medium to an optical density (OD600) of 2. Cell extracts were obtained by glass bead lysis with a Pulverisette (Fritsch). TAPs were performed in a buffer containing 50 mM Tris-HCl (pH 7.5), 100 mM NaCl, 1.5 mM MgCl2, 5% glycerol and 0.1% NP-40 as described. The EGTA eluates were precipitated by the addition of TCA to a final concentration of 10% and, after an acetone wash, dissolved in 80 μl of 3 × SDS sample buffer. […]\n(§2) lanes 3 and 4) from cells where expression of the yEGFP control protein (lanes 1 and 3) or the Rpl10(1-20)-yEGFP (lane 2) and Rpl3(1-23)-yEGFP (lane 4) fusion proteins has been induced from the CUP1 promoter for 30 min with 500 µM copper sulfate. Final EGTA eluates were analyzed by SDS-PAGE and Coomassie staining (top) or by Western blotting using anti-CBP, anti-Flag, anti-GFP, anti-Rpl10, and anti-Rpl3 antibodies (bottom). Total cell extracts (input) were analyzed by Western blotting using anti-proteinA, anti-GFP, and anti-Adh1 (loading control) antibodies. […]\n(§3) Final EGTA eluates were analyzed by SDS-PAGE and Coomassie staining (top) or by Western blotting using anti-CBP, anti-Flag, anti-HA, anti-Rpl10, and anti-Rpl3 antibodies (bottom). […] Total cell extracts (input) were analyzed by Western blotting using anti-proteinA, anti-HA, and anti-Adh1 (loading control) antibodies. […]"}, "[3]": {"test_system": "NTAP-Rrb1", "test": "co-translational capturing of yEGFP fusion by qRT-PCR, NTAP-Rrb1 purification", "format": "binding, S. cerevisiae", "details": "vs yEGFP control mRNA; expressed 10 min from copper-inducible promoter, then cycloheximide", "protocol": "Cells expressing Sqt1-TAP, NTAP-Rrb1, Syo1-FTpA and Yar1-TAP were grown at 30 °C in 400 ml YPD medium to an optical density (OD600) of 0.8, then cycloheximide was added to a final concentration of 0.2 mg ml^−1 and the flasks were kept, with intermittent vigorous shaking, on ice for 5 min. Cells were harvested by centrifugation for 5 min at 4 °C at 4,000 r.p.m., washed once with 20 ml of ice-cold lysis buffer (100 mM NaCl, 50 mM Tris-HCl (pH 7.5), 1.5 mM MgCl2, 0.1% NP-40 and 5% glycerol) containing 1 mM PMSF and 0.2 mg ml^−1 cycloheximide (lysis buffer-PC) and resuspended in 2 ml of lysis buffer-PC. Equal volumes of the resuspended cells were transferred into two 2.2 ml Eppendorf tubes, briefly centrifuged and resuspended in 600 μl of ice-cold lysis buffer-PC. To prevent RNA degradation, 4 μl of RiboLock (40 U μl^−1; Fermentas) was added. Then glass beads, corresponding to 1/3 of the lysis buffer volume, were added and the tubes were vigorously vortexed for 10 × 30 s with 30-s intervals on ice. Cell extracts were transferred to a new tube and, to maximize the yield, 400 μl of ice-cold lysis buffer-PC was used to rinse the glass beads. […]\nFor RNA isolation from the TEV eluate aliquot (∼450 μl), the TEV eluate was adjusted to 10 mM EDTA (pH 8.0) and 0.5% SDS. […] RNA concentrations (A260) were determined using a NanoDrop 1000 spectrophotometer (Thermo Scientific). […]"}, "[4]": {"test_system": "Sqt1-TAP", "test": "in vivo co-purification (TAP) with Sqt1-TAP", "format": "binding, S. cerevisiae", "details": "CUP1 promoter, 30 min with 500 µM copper sulfate", "protocol": "as §1, §2, §3"}, "[5]": {"test_system": "Sqt1-TAP", "test": "co-translational capturing of yEGFP fusion by qRT-PCR, Sqt1-TAP purification", "format": "binding, S. cerevisiae", "details": "vs yEGFP control mRNA; expressed 10 min from copper-inducible promoter, then cycloheximide", "protocol": "Figure 7 Chaperones are recruited to nascent ribosomal proteins. (a) The chaperone proteins were affinity purified (IgG-Sepharose pull-down) from extracts of cycloheximide-treated cells and the associated RNA was isolated from the TEV eluates. Each of the four chaperone purifications (NTAP-Rrb1, Syo1-FTpA, Sqt1-TAP, and Yar1-TAP) was assessed for their content of the four ribosomal protein (RP) mRNAs (RPL3, RPL5, RPL10 and RPS3) by real-time qRT–PCR. The data from one representative experiment are expressed as the relative enrichment of the specifically co-purified RP mRNA in each of the four chaperone purifications (see Methods section for details). For each cDNA, real-time qPCRs were performed in triplicates. A highly reproducible data set was obtained in an independent series of chaperone purifications. (b) The N-terminal residues of Rpl10 are sufficient to target Sqt1 to the nascent Rpl10(1–20)-yEGFP fusion protein. […] The Sqt1-TAP purifications were assessed for their content of the RPL3, RPL10 and yEGFP (GFP) mRNAs by real-time qRT–PCR. The data from one representative experiment are expressed as the fold enrichment relative to the RPL3 mRNA. […]"}, "[6]": {"test_system": "Rpl10", "test": "tandem-affinity purification of Sqt1-TAP", "format": "binding, S. cerevisiae", "details": "TAP from yeast cell lysate, EGTA eluate, Coomassie", "protocol": "(§4) Cells expressing Sqt1-TAP and NTAP-Rrb1 were grown at 30 °C in 4 l yeast extract peptone dextrose (YPD) medium to an optical density (OD600) of 2. Cell extracts were obtained by glass bead lysis with a Pulverisette (Fritsch). TAPs were performed in a buffer containing 50 mM Tris-HCl (pH 7.5), 100 mM NaCl, 1.5 mM MgCl2, 5% glycerol and 0.1% NP-40 as described. The EGTA eluates were precipitated by the addition of TCA to a final concentration of 10% and, after an acetone wash, dissolved in 80 μl of 3 × SDS sample buffer. Protein samples were separated on NuPAGE 4–12% Bis-Tris 12-well gels (Novex), run in 1 × MES SDS running buffer, and subsequently stained with Brilliant Blue G Colloidal Coomassie (Sigma)."}, "[7]": {"test_system": "Rpl3", "test": "tandem-affinity purification of NTAP-Rrb1", "format": "binding, S. cerevisiae", "details": "TAP from yeast cell lysate, EGTA eluate, Coomassie", "protocol": "as §4"}}, "note": "Ends that are not written are not given here."}
{"molecule": "L3-N (amino acids 1–23) yEGFP (MSHRKYEAPRHGHLGFLPRKRAA; also: fused to yEGFP, end not given here; UniProt P14126 1-23, looked up, fragment)", "values": [{"measurement": "growth defect associated with expression, upon overexpression of Sqt1 or Rrb1, respectively", "setting": "[1]", "result": "efficiently suppressed"}, {"measurement": "in vivo co-purification with the NTAP-Rrb1 bait", "setting": "[2]", "result": "specifically co-purified in vivo"}, {"measurement": "enrichment of fusion mRNA in NTAP-Rrb1 purification", "setting": "[3]", "result": "clearly enriched compared with the yEGFP control mRNA"}]}
{"molecule": "L10-N (amino acids 1–20) yEGFP (MARRPARCYRYQKNKPYPKS; also: fused to yEGFP; UniProt P41805 1-20, looked up, fragment)", "values": [{"measurement": "growth defect associated with expression, upon overexpression of Sqt1 or Rrb1, respectively", "setting": "[1]", "result": "efficiently suppressed"}, {"measurement": "in vivo co-purification with the Sqt1-TAP bait", "setting": "[4]", "result": "specifically co-purified in vivo"}, {"measurement": "enrichment of fusion mRNA in Sqt1-TAP purification", "setting": "[5]", "result": "clearly enriched compared with the yEGFP control mRNA"}]}
{"molecule": "B1", "values": [{"measurement": "co-enrichment of Rpl10", "setting": "[6]", "result": "good co-enrichment of Rpl10"}]}
{"molecule": "B2", "values": [{"measurement": "co-purification of Rpl3", "setting": "[7]", "result": "robust co-purification of Rpl3"}]}
